The record followed here is paper PMC5218480 (PLoS ONE, 2017).

The subject of this experiment is MV-4-11 cells. The experiment in a line: Gene expression microarray analysis (Affymetrix PrimeView) and GSEA. It is filed as cell-based, human. On the set-up: RFU PODN (11730768_x_at) / Fold change /veh PODN (11730768_x_at) / RFU LINC00158 (11744669_a_at) / Fold change /veh LINC00158 (11744669_a_at) / RFU DUSP10 (11751237_a_at) / Fold change /veh DUSP10 (11751237_a_at) / RFU ID3 (11757404_x_at) / Fold change /veh ID3 (11757404_x_at) / RFU PLEKHG5 (11737974_s_at) / Fold change /veh PLEKHG5 (11737974_s_at) / RFU LRRC4B (11730491_at) / Fold change /veh LRRC4B (11730491_at) / RFU GIMAP4 (11747438_a_at) / Fold change /veh GIMAP4 (11747438_a_at) / RFU KRT8 (11758183_x_at) / Fold change /veh KRT8 (11758183_x_at) / RFU CNN1 (11734310_a_at) / Fold change /veh CNN1 (11734310_a_at) / RFU VPS37D (11726825_at) / Fold change /veh VPS37D (11726825_at) / RFU C10orf10 (11716522_x_at) / Fold change /veh C10orf10 (11716522_x_at) / RFU KIR2DL2 /// KIR2DL4 /// KIR2DL5A /// KIR2DL5B /// KIR2DS1 /// KIR2DS2 /// KIR2DS3 /// KIR2DS4 /// KIR3DL3 /// KIR3DL3 /// KIR3DS1 (11738374_at) / Fold change /veh KIR2DL2 /// KIR2DL4 /// KIR2DL5A /// KIR2DL5B /// KIR2DS1 /// KIR2DS2 /// KIR2DS3 /// KIR2DS4 /// KIR3DL3 /// KIR3DL3 /// KIR3DS1 (11738374_at) / RFU C1QL1 (11718748_at) / Fold change /veh C1QL1 (11718748_at) / RFU TMPRSS4 (11747572_a_at) / Fold change /veh TMPRSS4 (11747572_a_at) / RFU HAMP (11756126_x_at) / Fold change /veh HAMP (11756126_x_at) / RFU RNFT2 (11725882_a_at) / Fold change /veh RNFT2 (11725882_a_at) / RFU NR4A2 (11747474_a_at) / Fold change /veh NR4A2 (11747474_a_at) / RFU ABCC12 (11746883_a_at) / Fold change /veh ABCC12 (11746883_a_at) / RFU TMEM136 (11760407_x_at) / Fold change /veh TMEM136 (11760407_x_at) / RFU CLDN22 /// WWC2 (11732394_at) / Fold change /veh CLDN22 /// WWC2 (11732394_at) / RFU HLA-DPB1 (11760878_x_at) / Fold change /veh HLA-DPB1 (11760878_x_at) / RFU SPINT1 (11716480_a_at) / Fold change /veh SPINT1 (11716480_a_at) / RFU GAP43 (11754022_s_at) / Fold change /veh GAP43 (11754022_s_at) / RFU A4GNT (11735810_at) / Fold change /veh A4GNT (11735810_at) / RFU PRB3 (11715151_x_at) / Fold change /veh PRB3 (11715151_x_at) / RFU TUBB4B (11761932_at) / Fold change /veh TUBB4B (11761932_at) / RFU CAPN14 (11732068_a_at) / Fold change /veh CAPN14 (11732068_a_at) / RFU TMCC2 (11721928_a_at) / Fold change /veh TMCC2 (11721928_a_at) / RFU IRGQ (11745062_a_at) / Fold change /veh IRGQ (11745062_a_at) / RFU FAM174B (11720279_a_at) / Fold change /veh FAM174B (11720279_a_at) / RFU TMPRSS4 (11748680_a_at) / Fold change /veh TMPRSS4 (11748680_a_at) / RFU FAM212B (11763350_a_at) / Fold change /veh FAM212B (11763350_a_at) / RFU PLEKHG5 (11743358_a_at) / Fold change /veh PLEKHG5 (11743358_a_at) / RFU ZSCAN30 (11745921_a_at) / Fold change /veh ZSCAN30 (11745921_a_at) / RFU CMKLR1 (11741424_a_at) / Fold change /veh CMKLR1 (11741424_a_at) / RFU LOC101060620 /// MAPK8IP1 (11723275_at) / Fold change /veh LOC101060620 /// MAPK8IP1 (11723275_at) / RFU SPTSSB (11747773_x_at) / Fold change /veh SPTSSB (11747773_x_at) / RFU PRSS12 (11739890_at) / Fold change /veh PRSS12 (11739890_at) / RFU BIN1 (11741810_x_at) / Fold change /veh BIN1 (11741810_x_at) / RFU WNT11 (11732464_a_at) / Fold change /veh WNT11 (11732464_a_at) / RFU C10orf10 (11716521_a_at) / Fold change /veh C10orf10 (11716521_a_at) / RFU C5orf56 (11738089_at) / Fold change /veh C5orf56 (11738089_at) / RFU CYB561 (11721691_x_at) / Fold change /veh CYB561 (11721691_x_at) / RFU ANKRD19P (11752326_a_at) / Fold change /veh ANKRD19P (11752326_a_at) / RFU OR2T12 /// OR2T33 /// OR2T8 (11738714_s_at) / Fold change /veh OR2T12 /// OR2T33 /// OR2T8 (11738714_s_at) / RFU VCAN (11748164_a_at) / Fold change /veh VCAN (11748164_a_at) / RFU JSRP1 (11732532_at) / Fold change /veh JSRP1 (11732532_at) / RFU KRTAP10-11 (11738290_x_at) / Fold change /veh KRTAP10-11 (11738290_x_at) / RFU MYO3A (11730013_a_at) / Fold change /veh MYO3A (11730013_a_at) / RFU EBF3 (11725865_a_at) / Fold change /veh EBF3 (11725865_a_at) / RFU CAMK2N1 (11719241_x_at) / Fold change /veh CAMK2N1 (11719241_x_at) / RFU C5orf56 (11738088_a_at) / Fold change /veh C5orf56 (11738088_a_at) / RFU OLFML3 (11715873_a_at) / Fold change /veh OLFML3 (11715873_a_at) / RFU LOC100653217 /// NTM (11731650_a_at) / Fold change /veh LOC100653217 /// NTM (11731650_a_at) / RFU MAPK11 (11762145_a_at) / Fold change /veh MAPK11 (11762145_a_at) / RFU FIZ1 (11724087_x_at) / Fold change /veh FIZ1 (11724087_x_at) / RFU OASL (11726364_x_at) / Fold change /veh OASL (11726364_x_at) / RFU SOX15 (11748057_x_at) / Fold change /veh SOX15 (11748057_x_at) / RFU CD79A (11719716_a_at) / Fold change /veh CD79A (11719716_a_at) / RFU HIST1H1D (11736915_at) / Fold change /veh HIST1H1D (11736915_at) / RFU CASKIN2 (11723855_a_at) / Fold change /veh CASKIN2 (11723855_a_at) / RFU LOC730098 (11760151_x_at) / Fold change /veh LOC730098 (11760151_x_at) / RFU OR4N2 (11742367_at) / Fold change /veh OR4N2 (11742367_at) / RFU PRRT2 (11749266_a_at) / Fold change /veh PRRT2 (11749266_a_at) / RFU SNX32 (11753110_a_at) / Fold change /veh SNX32 (11753110_a_at) / RFU CDHR5 (11726645_a_at) / Fold change /veh CDHR5 (11726645_a_at) / RFU RCAN1 (11760418_a_at) / Fold change /veh RCAN1 (11760418_a_at) / RFU FAM167A (11723789_a_at) / Fold change /veh FAM167A (11723789_a_at) / RFU FAM26E (11764081_at) / Fold change /veh FAM26E (11764081_at) / RFU ISYNA1 (11749810_s_at) / Fold change /veh ISYNA1 (11749810_s_at) / RFU ACY1 (11761880_at) / Fold change /veh ACY1 (11761880_at) / RFU 11764098_at / Fold change /veh 11764098_at / RFU SAMD14 (11745864_x_at) / Fold change /veh SAMD14 (11745864_x_at) / RFU NPB (11741838_a_at) / Fold change /veh NPB (11741838_a_at) / RFU TMPRSS6 (11731388_a_at) / Fold change /veh TMPRSS6 (11731388_a_at) / RFU KRTAP10-2 (11738614_at) / Fold change /veh KRTAP10-2 (11738614_at) / RFU ARHGAP8 /// PRR5-ARHGAP8 (11727945_x_at) / Fold change /veh ARHGAP8 /// PRR5-ARHGAP8 (11727945_x_at) / RFU KRTAP5-7 /// NADSYN1 (11734609_at) / Fold change /veh KRTAP5-7 /// NADSYN1 (11734609_at) / RFU RASL12 (11751679_a_at) / Fold change /veh RASL12 (11751679_a_at) / RFU CDKN2B (11736163_a_at) / Fold change /veh CDKN2B (11736163_a_at) / RFU PRF1 (11729649_at) / Fold change /veh PRF1 (11729649_at) / RFU, ZNF638 /// ZNF638-IT1 / Fold change vs veh, ZNF638 /// ZNF638-IT1 / RFU, PANK3 / Fold change vs veh, PANK3 / RFU, SH3YL1 / Fold change vs veh, SH3YL1 / RFU, ZEB2 / Fold change vs veh, ZEB2 / RFU, NRIP1 / Fold change vs veh, NRIP1 / RFU, PTTG1IP / Fold change vs veh, PTTG1IP / RFU, CAPN2 / Fold change vs veh, CAPN2 / RFU, MED14 / Fold change vs veh, MED14 / RFU, SNORA58 / Fold change vs veh, SNORA58 / RFU, C1orf63 / Fold change vs veh, C1orf63 / RFU, LRRFIP1 / Fold change vs veh, LRRFIP1 / RFU, NDUFAF7 / Fold change vs veh, NDUFAF7 / RFU, SLC12A2 / Fold change vs veh, SLC12A2 / RFU, IBTK / Fold change vs veh, IBTK / RFU, ESF1 / Fold change vs veh, ESF1 / Fold change vs veh, TMEM50B / RFU, TAOK1 / Fold change vs veh, TAOK1 / RFU, ACBD3 / Fold change vs veh, ACBD3 / RFU, TMA16 / Fold change vs veh, TMA16 / RFU, RWDD3 / Fold change vs veh, RWDD3 / RFU, BCAT1 / Fold change vs veh, BCAT1 / RFU, EDEM3 / Fold change vs veh, EDEM3 / RFU, TMEM33 / Fold change vs veh, TMEM33 / RFU, WDR75 / Fold change vs veh, WDR75 / RFU, AHCTF1 / Fold change vs veh, AHCTF1 / RFU, TFRC / Fold change vs veh, TFRC / RFU, ZDHHC17 / Fold change vs veh, ZDHHC17 / RFU, NOM1 / Fold change vs veh, NOM1 / RFU, ARL8B / Fold change vs veh, ARL8B / RFU, ZBTB11 / Fold change vs veh, ZBTB11 / RFU, TAMM41 / Fold change vs veh, TAMM41 / RFU, KIAA1704 /// LOC100996395 / Fold change vs veh, KIAA1704 /// LOC100996395 / RFU, ING1 / Fold change vs veh, ING1 / RFU, TRMT61B / Fold change vs veh, TRMT61B / RFU, FUBP3 / Fold change vs veh, FUBP3 / RFU, TP53 / Fold change vs veh, TP53 / RFU, TNKS2 / Fold change vs veh, TNKS2 / RFU, ZFP14 / Fold change vs veh, ZFP14 / RFU, ACTR2 / Fold change vs veh, ACTR2 / RFU, PPP3R1 / Fold change vs veh, PPP3R1 / RFU, PIK3R1 / Fold change vs veh, PIK3R1 / RFU, HNRNPA1 / Fold change vs veh, HNRNPA1 / RFU, RNF170 / Fold change vs veh, RNF170 / RFU, ZNF28 / Fold change vs veh, ZNF28 / RFU, RNGTT / Fold change vs veh, RNGTT / RFU, OGT / Fold change vs veh, OGT / RFU, BRD1 / Fold change vs veh, BRD1 / RFU, MARS / Fold change vs veh, MARS / RFU, ZNF655 / Fold change vs veh, ZNF655 / RFU, FAHD1 / Fold change vs veh, FAHD1 / RFU, BDP1 / Fold change vs veh, BDP1 / RFU, LRRCC1 / Fold change vs veh, LRRCC1 / RFU, ARID1A / Fold change vs veh, ARID1A / RFU, ZNF146 / Fold change vs veh, ZNF146 / RFU, ZNF330 / Fold change vs veh, ZNF330 / RFU, GPN3 / Fold change vs veh, GPN3 / RFU, C9orf123 / Fold change vs veh, C9orf123 / RFU, N4BP2L2 / Fold change vs veh, N4BP2L2 / RFU, ARFIP1 / Fold change vs veh, ARFIP1 / RFU, FAM179B / Fold change vs veh, FAM179B / RFU, BCL10 / Fold change vs veh, BCL10 / RFU, UHRF1BP1L / Fold change vs veh, UHRF1BP1L / RFU, BET1 / Fold change vs veh, BET1 / RFU, CNOT2 / Fold change vs veh, CNOT2 / RFU, ZNF268 / Fold change vs veh, ZNF268 / Fold change vs veh, ZNF507 / RFU, DGCR2 / Fold change vs veh, DGCR2 / RFU, WDSUB1 / Fold change vs veh, WDSUB1 / Fold change vs veh, HSP90B1 /// MIR3652 / RFU, ADSS / Fold change vs veh, ADSS / RFU, GK / Fold change vs veh, GK / RFU, ZNF148 / Fold change vs veh, ZNF148 / RFU, TAF9 / Fold change vs veh, TAF9 / RFU, SLC1A5 / Fold change vs veh, SLC1A5 / RFU, SLMO2 / Fold change vs veh, SLMO2 / RFU, ABCC4 / Fold change vs veh, ABCC4 / RFU, LOC101060439 /// RAP1B / Fold change vs veh, LOC101060439 /// RAP1B / RFU, RFX7 / Fold change vs veh, RFX7 / RFU, GTPBP10 / Fold change vs veh, GTPBP10 / RFU, CNEP1R1 / Fold change vs veh, CNEP1R1 / RFU, BIVM-ERCC5 /// ERCC5 / Fold change vs veh, BIVM-ERCC5 /// ERCC5 / RFU, ILF3 / Fold change vs veh, ILF3 / RFU 11762660_at / Fold change /veh 11762660_at / RFU VCAN (11757783_s_at) / Fold change /veh VCAN (11757783_s_at) / RFU DDX43 (11728927_at) / Fold change /veh DDX43 (11728927_at) / RFU KRT8 (11758188_x_at) / Fold change /veh KRT8 (11758188_x_at) / RFU NKD1 (11759106_at) / Fold change /veh NKD1 (11759106_at) / RFU SRD5A1 (11742802_a_at) / Fold change /veh SRD5A1 (11742802_a_at) / RFU TPSAB1 /// TPSB2 (11721975_s_at) / Fold change /veh TPSAB1 /// TPSB2 (11721975_s_at) / RFU GSTM3 (11746129_a_at) / Fold change /veh GSTM3 (11746129_a_at) / RFU IL23R (11737362_x_at) / Fold change /veh IL23R (11737362_x_at) / RFU TMEM51 (11727254_a_at) / Fold change /veh TMEM51 (11727254_a_at) / RFU PIWIL2 (11732686_x_at) / Fold change /veh PIWIL2 (11732686_x_at) / RFU ORM1 (11744905_x_at) / Fold change /veh ORM1 (11744905_x_at) / RFU CCDC152 (11743942_at) / Fold change /veh CCDC152 (11743942_at) / RFU ECM1 (11717891_a_at) / Fold change /veh ECM1 (11717891_a_at) / RFU IL23R (11748794_a_at) / Fold change /veh IL23R (11748794_a_at) / RFU TNFAIP8L3 (11732012_x_at) / Fold change /veh TNFAIP8L3 (11732012_x_at) / RFU MBOAT4 (11741988_at) / Fold change /veh MBOAT4 (11741988_at) / RFU 11764193_at / Fold change /veh 11764193_at / RFU TMEM53 (11763286_at) / Fold change /veh TMEM53 (11763286_at) / RFU MAGEB2 (11727129_at) / Fold change /veh MAGEB2 (11727129_at) / RFU TMEM200A (11744735_a_at) / Fold change /veh TMEM200A (11744735_a_at) / RFU CCDC152 (11751479_a_at) / Fold change /veh CCDC152 (11751479_a_at) / RFU FAM211A (11726209_a_at) / Fold change /veh FAM211A (11726209_a_at) / RFU RGS16 (11746705_a_at) / Fold change /veh RGS16 (11746705_a_at) / RFU VCAN (11755009_s_at) / Fold change /veh VCAN (11755009_s_at) / RFU RHOB (11743442_s_at) / Fold change /veh RHOB (11743442_s_at) / RFU RGS16 (11720943_a_at) / Fold change /veh RGS16 (11720943_a_at) / RFU RGS16 (11720944_at) / Fold change /veh RGS16 (11720944_at) / RFU, VPS4B / Fold change vs veh, VPS4B / RFU, CREB1 / Fold change vs veh, CREB1 / RFU, DNAJC13 / Fold change vs veh, DNAJC13 / RFU, GNAQ / Fold change vs veh, GNAQ / RFU, CDK5R1 / Fold change vs veh, CDK5R1 / RFU, ZRANB3 / Fold change vs veh, ZRANB3 / RFU, CUL4A / Fold change vs veh, CUL4A / RFU, CCNY / Fold change vs veh, CCNY / RFU, UFL1 / Fold change vs veh, UFL1 / RFU, COG3 / Fold change vs veh, COG3 / RFU, DIAPH2 / Fold change vs veh, DIAPH2 / RFU, SKA2 / Fold change vs veh, SKA2 / RFU, AFF3 / Fold change vs veh, AFF3 / RFU, LMF1 / Fold change vs veh, LMF1 / RFU, IPO11 / Fold change vs veh, IPO11 / RFU, DFFB / Fold change vs veh, DFFB / RFU, FOXP1 / Fold change vs veh, FOXP1 / RFU, CARD8 / Fold change vs veh, CARD8 / RFU, STRN3 / Fold change vs veh, STRN3 / RFU, ADK / Fold change vs veh, ADK / RFU, RASSF2 / Fold change vs veh, RASSF2 / RFU, WIPF1 / Fold change vs veh, WIPF1 / RFU, LARP1B / Fold change vs veh, LARP1B / RFU, RASA1 / Fold change vs veh, RASA1 / RFU, RB1 / Fold change vs veh, RB1 / RFU, PPFIA1 / Fold change vs veh, PPFIA1 / RFU, MAT2A / Fold change vs veh, MAT2A / RFU, CCT5 / Fold change vs veh, CCT5 / RFU, WDR92 / Fold change vs veh, WDR92 / RFU, CUX1 / Fold change vs veh, CUX1 / RFU, TTC7A / Fold change vs veh, TTC7A / RFU, TMEM135 / Fold change vs veh, TMEM135 / RFU, DEPTOR / Fold change vs veh, DEPTOR / RFU, CPM / Fold change vs veh, CPM / RFU, DNAJB6 / Fold change vs veh, DNAJB6 / RFU, CACNA2D3 / Fold change vs veh, CACNA2D3 / RFU, DTX4 / Fold change vs veh, DTX4 / RFU, TFCP2 / Fold change vs veh, TFCP2 / RFU, GMCL1 /// GMCL1P1 / Fold change vs veh, GMCL1 /// GMCL1P1 / RFU, AEBP2 / Fold change vs veh, AEBP2 / RFU, SNHG1 /// SNORD22 /// SNORD25 /// SNORD26 /// SNORD27 /// SNORD28 /// SNORD29 /// SNORD31 / Fold change vs veh, SNHG1 /// SNORD22 /// SNORD25 /// SNORD26 /// SNORD27 /// SNORD28 /// SNORD29 /// SNORD31 / Fold change (Aza/veh), C12orf56 (ProbeSet 11735607_a_at) / Fold change (ACY-1035/veh), C12orf56 (ProbeSet 11735607_a_at) / Fold change (Aza/veh), FGFR1OP (ProbeSet 11751329_s_at) / Fold change (ACY-1035/veh), FGFR1OP (ProbeSet 11751329_s_at) / Fold change (Aza/veh), VPS36 (ProbeSet 11739960_a_at) / Fold change (ACY-1035/veh), VPS36 (ProbeSet 11739960_a_at) / RFU SYPL1 (11715823_x_at) / Fold change /veh SYPL1 (11715823_x_at) / RFU IGFBP7 (11715501_s_at) / Fold change /veh IGFBP7 (11715501_s_at) / RFU REEP3 (11722064_at) / Fold change /veh REEP3 (11722064_at) / RFU IGLL1 (11728026_x_at) / Fold change /veh IGLL1 (11728026_x_at): dose or concentration left out as unconfirmed. The settings on record: MV-4-11 cells, 48 hours.

Take `Nc1ccc(-c2cccs2)cc1NC(=O)c1ccc2c(c1)cc(C1CC1)n2CCN1CCOCC1` [ACY-1035]: the “RFU CDHR5 (11726645_a_at)” value came out at 42.85 RFU.
